In patent US20050074879A1, “Antisense oligonucleotide modulation of STAT3 expression” (priority 2000, published 2005):
Oligonucleotides are written 5' to 3', each unit as a sugar letter and its base; * is a phosphorothioate linkage, no mark a phosphodiester; rarer units and linkages stand in square brackets, end groups in braces. Plain capitals give the bases only. e = 2'-O-(2-methoxyethyl) (MOE); [5mC] = 5-methylcytosine; d = 2'-deoxy (DNA)

Experiments:
Mouse STAT3 mRNA = assay: Inhibition of mouse STAT3 mRNA expression in BCL1 cells (electroporation; RNase protection/Northern blot); format: cell-based; design: % mRNA INHIBITION: dose or concentration left out as unconfirmed; conditions: BCL1 cells electroporated with oligonucleotide, RNA collected 24 hours later
Method: The B lymphoma cell line, BCL1 was obtained from ATCC (Rockville, Md.). BCL1 cells were cultured in RPMI 1640 medium.
BCL1 cells (5×10^6 cells in PBS) were transfected with oligonucleotides by electroporation, at 200V, […]. using a BTX Electro Cell Manipulator 600 (Genetronics, San Diego, Calif.). For an initial screen, BCL1 were electroporated with […] oligonucleotide and RNA collected 24 hours later. Controls without oligonucleotide were subjected to the same electroporation conditions.
Total cellular RNA was isolated using the RNEASY7 kit (Qiagen, Santa Clarita, Calif.). RNAse protection experiments were conducted using RIBOQUANT™ kits and template sets according to the manufacturer's instructions (Pharmingen, San Diego, Calif.). Northern blotting was performed as described in Chiang, M-Y. et al. (J. Biol. Chem., 1991, 266, 18162-18171), using a rat cDNA probe prepared by Xho I/Sal I restriction digest of psvsport-1 plasmid (ATCC, Rockville, Md.). mRNA levels were quantitated using a PhosphorImager (Molecular Dynamics, Sunnyvale, Calif.).

Mouse STAT3 protein = assay: STAT3 protein levels in BCL1 cells by Western blot, dose response; format: cell-based
Method: ISIS 17152 (SEQ ID. NO. 99) was chosen for further study. The effect of this oligonucleotide on protein levels was determined by Western blot. ISIS 23177 (SEQ ID NO. 106), a 3 base mismatch, was used as a control. BCL1 cells were grown, treated and processed as described in Example 2.
Nuclear extracts from primary B cells and B lymphoma cell lines were prepared as described in Karras, J. G., et al. (J. Exp. Med., 1997, 185, 1035-1042).
Western blotting was performed as described in Karras, J. G. et al. (J. Immunol., 1996, 157, 2299). STAT1 and STAT3 antibodies were obtained from UBI (Lake Placid, N.Y.).

BCL1 cells = assay: BCL1 cell proliferation, [3H]-thymidine incorporation; format: cell-based, mouse; conditions: BCL1 cells; for % Cell Proliferation: 48 hours after electroporation
Method: The effect of ISIS 17152 (SEQ ID NO. 99) on BCL1 proliferation was determined. BCL1 cells contain constitutively active STAT3 which is thought to be responsible for their proliferation. BCL1 cells were grown, treated and processed as described in Example 2.
1×10^5 BCL1 cells were incubated in 96-well plates in […] complete RPMI following electroporation. Cultures were pulsed with […] of [^3H]-thymidine for the last 8 hours of culture and cells were harvested and analyzed for thymidine incorporation as described in Francis, D. A. et al. (Int. Immunol., 1995, 7, 151-161) 48 hours after electroporation.

[1] = test system: IgM secretion by BCL1 cells; assay: BCL1 IgM secretion, ELISA; format: cell-based, mouse
Method: The effect of ISIS 17152 (SEQ ID. NO. 99) on IgM secretion levels was determined. STAT3 has been implicated in regulation of IgM expression (Faris, M., et al., Immunology, 1997, 90, 350-357). BCL1 cells were grown, treated and processed as described in Example 2.
1×10^6 BCL1 cells were incubated in 12-well plates in 2 mL complete RPMI following electroporation. Supernatant was replaced at 24 hour post electroporation with fresh medium. 48 hours later, supernatants were harvested, centrifuged to remove cells, and assayed for IgM content using the OPT-EIA™ ELISA kit (Pharmingen, San Diego, Calif.) and capture and detecting antibodies for mouse IgM (Southern Biotechnology, Birmingham, Ala.).

RANTES mRNA = assay: Induction of chemokines in BCL1 cells, RNase protection assay: RANTES; format: cell-based, mouse; conditions: CpG oligonucleotide induced
Method: (§1) The effect of ISIS 17152 (SEQ ID. NO. 99) on chemokine levels was determined. BCL1 cells were grown, treated and processed as described in Example 2. Chemokine gene expression was induced in BCL1 cells by addition of […] of a CpG-containing oligonucleotide to the media 16 hours following antisense oligonucleotide electroporation. CpG-containing oligonucleotides are immune-stimulatory (Krieg, A. M., et al., Nature, 1995, 374, 546-549). The levels of chemokines were measured eight hours later using RNase protection assay as described in Example 2 with a mouse chemokine template set, Mck-5 (Pharmingen, San Diego, Calif.).

MIP1a mRNA = assay: Induction of chemokines in BCL1 cells, RNase protection assay: MIP1a; format: cell-based, mouse; conditions: CpG oligonucleotide induced
Method: as §1

MIP1b mRNA = assay: Induction of chemokines in BCL1 cells, RNase protection assay: MIP1b; format: cell-based, mouse; conditions: CpG oligonucleotide induced
Method: as §1

Human STAT3 mRNA = assay: Inhibition of human STAT3 mRNA expression in U266 cells, Northern blot; format: cell-based; conditions: U266 cells, 2.5 μM oligonucleotide, electroporation, 24 hours
Method: U266 human myeloma cell lines (originally obtained from American Type Culture Collection) were maintained in RPMI 1640 medium supplemented with 10% fetal calf serum. Cells (15×10^6 cells in PBS) were transfected with oligonucleotides at 200V with a single 6-millisecond pulse using a BTX Electro Square Porator T820 (Genetronics, San Diego Calif.). The cells were incubated for 24 hours before RNA extraction.
Total cellular RNA was isolated using the Rneasy kit (Qiagen, Santa Clarita, Calif.). Northern blotting was perfomed on 15 μg of RNA using a cDNA probe prepared from MB-MDA 468 RNA by standard RT-PCR followed by a nested primer reaction. Signals were quantitated using a Molecular Dynamics Phosphorimager.
In order to examine the importance of STAT3 expression in multiple myeloma cells, a series of 20mer STAT3 antisense oligonucleotides were designed and synthesized, using phosphorothioate chemistry and incorporating 2′-O-methoxyethyl modifications to improve hybridization affinity and nuclease resistance.

| Substance | % protein Expression (Mouse STAT3 protein; dose 10 nM) [%] | % protein Inhibition (Mouse STAT3 protein; dose 10 nM) [%] | % protein Expression (Mouse STAT3 protein; dose 15 nM) [%] | % protein Inhibition (Mouse STAT3 protein; dose 15 nM) [%] | % protein Expression (Mouse STAT3 protein; dose 20 nM) [%] | % protein Inhibition (Mouse STAT3 protein; dose 20 nM) [%] | % Cell Proliferation (BCL1 cells; dose 10 nM) [%] | % Cell Inhibition (BCL1 cells; dose 15 nM) [%] | % Cell Proliferation (BCL1 cells; dose 15 nM) [%] | % Cell Proliferation (BCL1 cells; dose 20 nM) [%] | % IgM Expression ([1]; dose 5 nM) [%] | % IgM Expression ([1]; dose 15 nM) [%] | % IgM Inhibition ([1]; dose 15 nM) [%] | % RANTES mRNA (RANTES mRNA; dose 5 nM, control 100%) [%] | % RANTES mRNA (RANTES mRNA; dose 10 nM) [%] | % RANTES mRNA (RANTES mRNA; dose 20 nM) [%] | % MIP1a mRNA (MIP1a mRNA; dose 5 nM) [%] | % MIP1a mRNA (MIP1a mRNA; dose 10 nM) [%] | % MIP1a mRNA (MIP1a mRNA; dose 20 nM) [%] | % MIP1b mRNA (MIP1b mRNA; dose 5 nM) [%] | also measured |
| --- | --- | --- | --- | --- | --- | --- | --- | --- | --- | --- | --- | --- | --- | --- | --- | --- | --- | --- | --- | --- | --- |
| 17152 (antisense eA*eA*eA*eA*eA*dG*dT*dG*dC*dC*dC*dA*dG*dA*dT*eT*eG*e[5mC]*e[5mC]*e[5mC]) [compound 17152] | 41.7 | 58.3 | 42.5 | 57.5 | 26.5 | 73.5 | 78.5 | 45.6 | 54.4 | 50.2 | 34.2 | 23.1 | 76.9 | 236 | 266 | 257 | 201 | 258 | 254 | 133 | % mRNA INHIBITION (Mouse STAT3 mRNA): 75%; % mRNA EXPRESSION (Mouse STAT3 mRNA; control 100%): 25%; % Cell Inhibition (BCL1 cells; dose 10 nM): 21.5%; % Cell Inhibition (BCL1 cells; dose 20 nM): 49.8%; % IgM Inhibition ([1]; dose 5 nM): 65.8%; % MIP1b mRNA (MIP1b mRNA; dose 10 nM): 150%; % MIP1b mRNA (MIP1b mRNA; dose 20 nM): 159%; % mRNA INHIBITION (Human STAT3 mRNA): 17.5%; % mRNA EXPRESSION (Human STAT3 mRNA; percent of control): 82.5% |
| 23177 (antisense eA*eA*eA*eA*eA*dG*dT*dC*dC*dG*dC*dT*dG*dA*dT*eT*eG*e[5mC]*e[5mC]*e[5mC]) [compound 23177] | 75.1 | 24.9 | 67.6 | 32.4 | 62.6 | 37.4 | 117.0 | 0.3 | 99.7 | 107.0 | 110.0 | 80.8 | 19.2 | – | – | – | – | – | – | – | – |
| 23178 (antisense eA*eA*eA*eA*eA*dC*dT*dC*dC*dG*dC*dT*dG*dA*dA*eT*eG*e[5mC]*e[5mC]*e[5mC]) [compound 23178] | – | – | – | – | – | – | – | – | – | – | – | – | – | 96 | 70.2 | 56 | 123 | 116 | 106 | 96.5 | % MIP1b mRNA (MIP1b mRNA; dose 10 nM): 87.1%; % MIP1b mRNA (MIP1b mRNA; dose 20 nM): 73.3% |
